#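 Step 1: Grow cells in 96-well plates. Step 2: Expose to compound for 48 hours at 5 concentrations. Step 3: Interpolate endpoints linearly; if unreached, use highest concentration. GI50 = concentration required for 50% inhibition of growth. The concentration for full growth arrest is given as TGI.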
# Assays:
# Experiment in all cases: inhibition of tumour cell growth, NCI panel, 48 h
# 786-0 renal = tested on: 786-0 renal
# A498 renal = tested on: A498 renal
# A549 NSCLC = tested on: A549 NSCLC
# ACHN renal = tested on: ACHN renal
# BT-549 breast = tested on: BT-549 breast
# CAKI-1 renal = tested on: CAKI-1 renal
# CCRF-CEM leukemia = tested on: CCRF-CEM leukemia
# COLO 205 colon = tested on: COLO 205 colon
# DU-145 prostate = tested on: DU-145 prostate
# HCC-2998 colon = tested on: HCC-2998 colon
# HCT-116 colon = tested on: HCT-116 colon
# HCT-15 colon = tested on: HCT-15 colon
# HL-60(TB) leukemia = tested on: HL-60(TB) leukemia
# HOP-62 NSCLC = tested on: HOP-62 NSCLC
# HOP-92 NSCLC = tested on: HOP-92 NSCLC
# HS 578T breast = tested on: HS 578T breast
# IGROV1 ovarian = tested on: IGROV1 ovarian
# KM12 colon = tested on: KM12 colon
# LOX IMVI melanoma = tested on: LOX IMVI melanoma
# M14 melanoma = tested on: M14 melanoma
# MCF7 breast = tested on: MCF7 breast
# MDA-MB-231 breast = tested on: MDA-MB-231 breast
# MDA-MB-435 = tested on: MDA-MB-435
# MOLT-4 leukemia = tested on: MOLT-4 leukemia
# NCI-H226 lung = tested on: NCI-H226 lung
# NCI-H23 lung = tested on: NCI-H23 lung
# NCI-H460 lung = tested on: NCI-H460 lung
# NCI-H522 lung = tested on: NCI-H522 lung
# NCI/ADR-RES ovarian = tested on: NCI/ADR-RES ovarian
# OVCAR-3 ovarian = tested on: OVCAR-3 ovarian
# OVCAR-4 ovarian = tested on: OVCAR-4 ovarian
# OVCAR-5 ovarian = tested on: OVCAR-5 ovarian
# OVCAR-8 ovarian = tested on: OVCAR-8 ovarian
# PC-3 prostate = tested on: PC-3 prostate
# RPMI-8226 leukemia = tested on: RPMI-8226 leukemia
# RXF 393 renal = tested on: RXF 393 renal
# SF-268 CNS = tested on: SF-268 CNS
# SF-295 CNS = tested on: SF-295 CNS
# SF-539 CNS = tested on: SF-539 CNS
# SK-MEL-2 melanoma = tested on: SK-MEL-2 melanoma
# SK-MEL-28 melanoma = tested on: SK-MEL-28 melanoma
# SK-MEL-5 melanoma = tested on: SK-MEL-5 melanoma
# SK-OV-3 ovarian = tested on: SK-OV-3 ovarian
# SN12C renal = tested on: SN12C renal
# SNB-19 CNS = tested on: SNB-19 CNS
# SNB-75 CNS = tested on: SNB-75 CNS
# SR leukemia = tested on: SR leukemia
# SW-620 colon = tested on: SW-620 colon
# T-47D breast = tested on: T-47D breast
# TK-10 renal = tested on: TK-10 renal
# U251 CNS = tested on: U251 CNS
# UACC-257 melanoma = tested on: UACC-257 melanoma
# UACC-62 melanoma = tested on: UACC-62 melanoma
# UO-31 renal = tested on: UO-31 renal
smiles,measurement,setting,value
Oc1ccc(Cl)cc1-c1cc(-c2ccc(Cl)cc2)n[nH]1,GI50,786-0 renal,2.51 µM
same,TGI,786-0 renal,7.54 µM
same,GI50,A498 renal,10.9 µM
same,TGI,A498 renal,23.9 µM
same,GI50,A549 NSCLC,2.99 µM
same,TGI,A549 NSCLC,13.9 µM
same,GI50,ACHN renal,2.45 µM
same,TGI,ACHN renal,9.23 µM
same,GI50,BT-549 breast,2 µM
same,TGI,BT-549 breast,9.45 µM
same,GI50,CAKI-1 renal,1.87 µM
same,TGI,CAKI-1 renal,11.3 µM
same,GI50,CCRF-CEM leukemia,1.45 µM
same,TGI,CCRF-CEM leukemia,14.5 µM
same,GI50,COLO 205 colon,3.73 µM
same,TGI,COLO 205 colon,15.3 µM
same,GI50,DU-145 prostate,3.02 µM
same,TGI,DU-145 prostate,11 µM
same,GI50,HCC-2998 colon,1.86 µM
same,TGI,HCC-2998 colon,11.5 µM
same,GI50,HCT-116 colon,1.57 µM
same,TGI,HCT-116 colon,2.99 µM
same,GI50,HCT-15 colon,0.349 µM
same,TGI,HCT-15 colon,6.31 µM
same,GI50,HL-60(TB) leukemia,1.81 µM
same,TGI,HL-60(TB) leukemia,15.8 µM
same,GI50,HOP-62 NSCLC,1.6 µM
same,TGI,HOP-62 NSCLC,13.6 µM
same,GI50,HOP-92 NSCLC,1.18 µM
same,TGI,HOP-92 NSCLC,4.6 µM
same,GI50,HS 578T breast,4.13 µM
same,TGI,HS 578T breast,31.6 µM
same,GI50,IGROV1 ovarian,1.9 µM
same,TGI,IGROV1 ovarian,15.9 µM
same,GI50,KM12 colon,1.69 µM
same,TGI,KM12 colon,6.21 µM
same,GI50,LOX IMVI melanoma,2.02 µM
same,TGI,LOX IMVI melanoma,5.65 µM
same,GI50,M14 melanoma,2.72 µM
same,TGI,M14 melanoma,11.6 µM
same,GI50,MCF7 breast,0.551 µM
same,TGI,MCF7 breast,5.25 µM
same,GI50,MDA-MB-231 breast,0.624 µM
same,TGI,MDA-MB-231 breast,6.79 µM
same,GI50,MDA-MB-435,3.14 µM
same,TGI,MDA-MB-435,14.2 µM
same,GI50,MOLT-4 leukemia,2.05 µM
same,TGI,MOLT-4 leukemia,19.5 µM
same,GI50,NCI-H226 lung,2.87 µM
same,TGI,NCI-H226 lung,24.1 µM
same,GI50,NCI-H23 lung,2.03 µM
same,TGI,NCI-H23 lung,6.26 µM
same,GI50,NCI-H460 lung,2.03 µM
same,TGI,NCI-H460 lung,8.15 µM
same,GI50,NCI-H522 lung,3.26 µM
same,TGI,NCI-H522 lung,12.9 µM
same,GI50,NCI/ADR-RES ovarian,2.67 µM
same,TGI,NCI/ADR-RES ovarian,7.92 µM
same,GI50,OVCAR-3 ovarian,1.53 µM
same,TGI,OVCAR-3 ovarian,4.59 µM
same,GI50,OVCAR-4 ovarian,0.322 µM
same,TGI,OVCAR-4 ovarian,5.7 µM
same,GI50,OVCAR-5 ovarian,9.55 µM
same,TGI,OVCAR-5 ovarian,36.5 µM
same,GI50,OVCAR-8 ovarian,3.47 µM
same,TGI,OVCAR-8 ovarian,14.1 µM
same,GI50,PC-3 prostate,1.78 µM
same,TGI,PC-3 prostate,8.44 µM
same,GI50,RPMI-8226 leukemia,2.11 µM
same,TGI,RPMI-8226 leukemia,7.39 µM
same,GI50,RXF 393 renal,6.01 µM
same,TGI,RXF 393 renal,20.8 µM
same,GI50,SF-268 CNS,2.64 µM
same,TGI,SF-268 CNS,15.1 µM
same,GI50,SF-295 CNS,3.01 µM
same,TGI,SF-295 CNS,12.8 µM
same,GI50,SF-539 CNS,3.56 µM
same,TGI,SF-539 CNS,14.7 µM
same,GI50,SK-MEL-2 melanoma,11.3 µM
same,TGI,SK-MEL-2 melanoma,30.1 µM
same,GI50,SK-MEL-28 melanoma,4.46 µM
same,TGI,SK-MEL-28 melanoma,21.2 µM
same,GI50,SK-MEL-5 melanoma,1.35 µM
same,TGI,SK-MEL-5 melanoma,10.2 µM
same,GI50,SK-OV-3 ovarian,2.21 µM
same,TGI,SK-OV-3 ovarian,13.8 µM
same,GI50,SN12C renal,3.13 µM
same,TGI,SN12C renal,15.5 µM
same,GI50,SNB-19 CNS,2.59 µM
same,TGI,SNB-19 CNS,12.1 µM
same,GI50,SNB-75 CNS,1.44 µM
same,TGI,SNB-75 CNS,10.8 µM
same,GI50,SR leukemia,0.577 µM
same,TGI,SR leukemia,12.3 µM
same,GI50,SW-620 colon,2.54 µM
same,TGI,SW-620 colon,11.1 µM
same,GI50,T-47D breast,1.45 µM
same,TGI,T-47D breast,7.73 µM
same,GI50,TK-10 renal,3.56 µM
same,TGI,TK-10 renal,12.4 µM
same,GI50,U251 CNS,3.2 µM
same,TGI,U251 CNS,11.3 µM
same,GI50,UACC-257 melanoma,9.92 µM
same,TGI,UACC-257 melanoma,37.7 µM
same,GI50,UACC-62 melanoma,2.49 µM
same,TGI,UACC-62 melanoma,10.4 µM
same,GI50,UO-31 renal,1.38 µM
same,TGI,UO-31 renal,10.1 µM
